Measured values: ChEMBL document CHEMBL3045590, “Design, synthesis, bioactivity, and structure-activity relationship (SAR) studies of novel benzoylphenylureas containing oxime ether group” (2008)
Values after ≈ are worked out from the molar mass of the structure shown.

Legend:
Assay type in all cases: functional
Culex pipiens pallens [1] = test: Larvicidal activity against fourth-instar larval stage of Culex pipiens pallens (mosquito) assessed as mortality at 1 mg/l at 25 +/-1 degC after 8 days; settings: 192 h
Culex pipiens pallens [2] = test: Larvicidal activity against fourth-instar larval stage of Culex pipiens pallens (mosquito) assessed as mortality at 0.01 mg/l at 25 +/-1 degC after 8 days; settings: 192 h
Mythimna separata [3] = test: Larvicidal activity against fourth-instar larval stage of Mythimna separata (Oriental armyworm) in compound-pretreated corn leaves assessed as mortality at 1 mg/l at 25 +/-1 degC after 4 days
Culex pipiens pallens [4] = test: Larvicidal activity against fourth-instar larval stage of Culex pipiens pallens (mosquito) assessed as mortality at 0.1 mg/l at 25 +/-1 degC after 8 days; settings: 192 h
Culex pipiens pallens [5] = test: Larvicidal activity against fourth-instar larval stage of Culex pipiens pallens (mosquito) assessed as mortality at 0.05 mg/l at 25 +/-1 degC after 8 days; settings: 192 h
Mythimna separata [6] = test: Ratio of Hexaflumuron LC50 to compound LC50 for fourth-instar larval stage of Mythimna separata (Oriental armyworm) measured after 4 days
Culex pipiens pallens [7] = test: Larvicidal activity against fourth-instar larval stage of Culex pipiens pallens (mosquito) assessed as mortality at 0.0025 mg/l at 25 +/-1 degC after 8 days; settings: 192 h
Culex pipiens pallens [8] = test: Larvicidal activity against fourth-instar larval stage of Culex pipiens pallens (mosquito) assessed as mortality at 0.25 mg/l at 25 +/-1 degC after 8 days; settings: 192 h
Mythimna separata [9] = test: Larvicidal activity against fourth-instar larval stage of Mythimna separata (Oriental armyworm) in compound-pretreated corn leaves assessed as mortality at 0.25 mg/l at 25 +/-1 degC after 4 days
Culex pipiens pallens [10] = test: Larvicidal activity against fourth-instar larval stage of Culex pipiens pallens (mosquito) assessed as mortality at 0.025 mg/l at 25 +/-1 degC after 8 days; settings: 192 h
Mythimna separata [11] = test: Ratio of Flucycloxuron LC50 to compound LC50 for fourth-instar larval stage of Mythimna separata (Oriental armyworm) measured after 4 days
Mythimna separata [12] = test: Larvicidal activity against fourth-instar larval stage of Mythimna separata (Oriental armyworm) in compound-pretreated corn leaves assessed as mortality at 0.5 mg/l at 25 +/-1 degC after 4 days
Culex pipiens pallens [13] = test: Larvicidal activity against fourth-instar larval stage of Culex pipiens pallens (mosquito) assessed as mortality at 0.005 mg/l at 25 +/-1 degC after 8 days; settings: 192 h
Mythimna separata [14] = test: Larvicidal activity against fourth-instar larval stage of Mythimna separata (Oriental armyworm) in compound-pretreated corn leaves assessed as mortality at 2.5 mg/l at 25 +/-1 degC after 4 days
Culex pipiens pallens [15] = test: Larvicidal activity against fourth-instar larval stage of Culex pipiens pallens (mosquito) assessed as mortality at 0.001 mg/l at 25 +/-1 degC after 8 days; settings: 192 h
Mythimna separata [16] = test: Larvicidal activity against fourth-instar larval stage of Mythimna separata (Oriental armyworm) in compound-pretreated corn leaves assessed as mortality at 25 +/-1 degC after 4 days
Culex pipiens pallens [17] = test: Larvicidal activity against fourth-instar larval stage of Culex pipiens pallens (mosquito) assessed as mortality at 0.5 mg/l at 25 +/-1 degC after 8 days; settings: 192 h
Cucumis sativus = test: Growth regulation of Cucumis sativus (cucumber) seeds assessed as stimulation of radicle growth at 10 mg/l at 26 degC after 5 days
Mythimna separata [18] = test: Larvicidal activity against fourth-instar larval stage of Mythimna separata (Oriental armyworm) in compound-pretreated corn leaves assessed as mortality at 10 mg/l at 25 +/-1 degC after 4 days
Culex pipiens pallens [19] = test: Larvicidal activity against fourth-instar larval stage of Culex pipiens pallens (mosquito) assessed as mortality at 0.0005 mg/l at 25 +/-1 degC after 8 days; settings: 192 h
Mythimna separata [20] = test: Larvicidal activity against fourth-instar larval stage of Mythimna separata (Oriental armyworm) in compound-pretreated corn leaves assessed as mortality at 25 mg/l at 25 +/-1 degC after 4 days
Culex pipiens pallens [21] = test: Ratio of larvicidal activity of compound to larvicidal activity of Flucycloxuron for fourth-instar larval stage of Culex pipiens pallens (mosquito) measured after 8 days
Mythimna separata [22] = test: Larvicidal activity against fourth-instar larval stage of Mythimna separata (Oriental armyworm) in compound-pretreated corn leaves assessed as mortality at 5 mg/l at 25 +/-1 degC after 4 days
Culex pipiens pallens [23] = test: Larvicidal activity against fourth-instar larval stage of Culex pipiens pallens (mosquito) assessed as mortality at 2 mg/l at 25 +/-1 degC after 8 days; settings: 192 h
Mythimna separata [24] = test: Larvicidal activity against fourth-instar larval stage of Mythimna separata (Oriental armyworm) in compound-pretreated corn leaves assessed as mortality at 200 mg/l at 25 +/-1 degC after 4 days
Mythimna separata [25] = test: Larvicidal activity against fourth-instar larval stage of Mythimna separata (Oriental armyworm) in compound-pretreated corn leaves assessed as mortality at 50 mg/l at 25 +/-1 degC after 4 days
Mythimna separata [26] = test: Larvicidal activity against fourth-instar larval stage of Mythimna separata (Oriental armyworm) in compound-pretreated corn leaves assessed as mortality at 100 mg/l at 25 +/-1 degC after 4 days

| SMILES | mortality at 1 µg/mL (Culex pipiens pallens [1]) [%] | mortality at 0.01 µg/mL (Culex pipiens pallens [2]) [%] | mortality at 1 µg/mL (Mythimna separata [3]) [%] | mortality at 0.1 µg/mL (Culex pipiens pallens [4]) [%] | mortality at 0.05 µg/mL (Culex pipiens pallens [5]) [%] | mortality at 0.0025 µg/mL (Culex pipiens pallens [7]) [%] | mortality at 0.025 µg/mL (Culex pipiens pallens [10]) [%] | mortality at 0.005 µg/mL (Culex pipiens pallens [13]) [%] | mortality at 2.5 µg/mL (Mythimna separata [14]) [%] | LC50 (Mythimna separata [16]) [mg/L] | mortality at 0.5 µg/mL (Culex pipiens pallens [17]) [%] | mortality at 10 µg/mL (Mythimna separata [18]) [%] | mortality at 25 µg/mL (Mythimna separata [20]) [%] | other results |
| --- | --- | --- | --- | --- | --- | --- | --- | --- | --- | --- | --- | --- | --- | --- |
| CC(C)O/N=C/c1ccc(NC(=O)NC(=O)c2c(F)cccc2F)cc1 | 100 | 100 | 100 | 100 | 100 | 15 | 100 | 75 | 100 | 0.5 (≈ 1.38 µM) | 100 |  |  | RatioLC50 (Mythimna separata [6]): 9.4; mortality at 0.25 µg/mL (Culex pipiens pallens [8]): 100%; mortality at 0.25 µg/mL (Mythimna separata [9]): 0%; RatioLC50 (Mythimna separata [11]): 5; mortality at 0.5 µg/mL (Mythimna separata [12]): 50%; mortality at 0.001 µg/mL (Culex pipiens pallens [15]): 0%; Activity (Cucumis sativus): 55% |
| CC(C)(C)O/N=C/c1ccc(NC(=O)NC(=O)c2c(F)cccc2F)cc1 |  | 100 | 100 | 100 | 100 | 90 | 100 | 100 | 100 |  |  | 100 | 100 | mortality at 0.0005 µg/mL (Culex pipiens pallens [19]): 20%; mortality at 0.25 µg/mL (Mythimna separata [9]): 0%; RatioLC50 (Mythimna separata [11]): 5; RatioLC50 (Culex pipiens pallens [21]): 10; mortality at 0.5 µg/mL (Mythimna separata [12]): 85%; mortality at 0.001 µg/mL (Culex pipiens pallens [15]): 70%; mortality at 5 µg/mL (Mythimna separata [22]): 100% |
| O=C(NC(=O)c1c(F)cccc1F)Nc1ccc(/C=N/OCC(F)(F)F)cc1 |  | 100 | 90 | 100 | 100 | 70 | 100 | 100 | 100 |  |  | 100 | 100 | mortality at 0.25 µg/mL (Mythimna separata [9]): 0%; RatioLC50 (Culex pipiens pallens [21]): 10; mortality at 0.5 µg/mL (Mythimna separata [12]): 60%; mortality at 0.001 µg/mL (Culex pipiens pallens [15]): 10%; mortality at 5 µg/mL (Mythimna separata [22]): 100% |
| O=C(NC(=O)c1c(F)cccc1F)Nc1ccc(/C=N/OCC2CCCC2)cc1 | 100 |  |  | 10 |  |  |  |  |  |  | 10 | 0 | 10 | mortality at 2 µg/mL (Culex pipiens pallens [23]): 100%; mortality at 0.25 µg/mL (Culex pipiens pallens [8]): 10%; mortality at 200 µg/mL (Mythimna separata [24]): 80%; mortality at 50 µg/mL (Mythimna separata [25]): 10%; mortality at 100 µg/mL (Mythimna separata [26]): 40% |
| O=C(NC(=O)c1c(F)cccc1F)Nc1ccc(/C=N/OCC2CC2)cc1 |  | 100 | 0 |  |  | 60 |  | 100 | 90 |  |  | 100 | 100 | mortality at 0.001 µg/mL (Culex pipiens pallens [15]): 0%; mortality at 5 µg/mL (Mythimna separata [22]): 100% |
| C[Si](C)(C)O/N=C/c1ccc(NC(=O)NC(=O)c2c(F)cccc2F)cc1 | 100 |  |  |  |  |  |  |  |  |  | 100 |  |  | mortality at 2 µg/mL (Culex pipiens pallens [23]): 100%; mortality at 0.25 µg/mL (Culex pipiens pallens [8]): 0%; mortality at 200 µg/mL (Mythimna separata [24]): 100%; mortality at 50 µg/mL (Mythimna separata [25]): 0%; mortality at 100 µg/mL (Mythimna separata [26]): 60% |
| O=Cc1ccc(NC(=O)NC(=O)c2c(F)cccc2F)cc1 | 80 |  |  |  |  |  |  |  |  |  | 0 |  |  | mortality at 2 µg/mL (Culex pipiens pallens [23]): 100%; mortality at 200 µg/mL (Mythimna separata [24]): 0%; mortality at 100 µg/mL (Mythimna separata [26]): 0% |
| O=C(NC(=O)c1c(F)cccc1F)Nc1ccc(/C=N/O)cc1 | 100 |  |  | 10 |  |  |  |  |  |  | 60 |  |  | mortality at 2 µg/mL (Culex pipiens pallens [23]): 100%; mortality at 0.25 µg/mL (Culex pipiens pallens [8]): 40%; mortality at 200 µg/mL (Mythimna separata [24]): 80% |
| CCC(C)O/N=C/c1ccc(NC(=O)NC(=O)c2c(F)cccc2F)cc1 (centres undefined) |  | 40 | 0 | 100 | 100 | 10 | 100 | 20 | 30 |  |  | 80 | 100 | mortality at 5 µg/mL (Mythimna separata [22]): 50% |
| CCCC(C)O/N=C/c1ccc(NC(=O)NC(=O)c2c(F)cccc2F)cc1 (centres undefined) |  | 40 |  | 100 | 100 | 10 | 100 | 20 | 0 |  |  | 20 | 70 | mortality at 50 µg/mL (Mythimna separata [25]): 80%; Activity (Cucumis sativus): 45% |
| CCCCCO/N=C/c1ccc(NC(=O)NC(=O)c2c(F)cccc2F)cc1 | 100 |  |  | 15 | 0 |  |  |  |  |  | 90 | 0 | 20 | mortality at 2 µg/mL (Culex pipiens pallens [23]): 100%; mortality at 0.25 µg/mL (Culex pipiens pallens [8]): 80%; mortality at 50 µg/mL (Mythimna separata [25]): 90%; Activity (Cucumis sativus): 50% |
| O=C(NC(=O)c1ccccc1Cl)Nc1ccc(Cl)cc1 [CHLORBENZURON] |  |  |  |  |  |  |  |  |  | 2.29 (≈ 7.41 µM) |  |  |  |  |
| O=C(NC(=O)c1c(F)cccc1F)Nc1cc(Cl)c(Oc2ncc(C(F)(F)F)cc2Cl)c(Cl)c1 [CHLORFLUAZURON] |  |  |  |  |  |  |  |  |  | 1.03 (≈ 1.91 µM) |  |  |  |  |
| O=C(NC(=O)c1c(Cl)cccc1Cl)Nc1ccc(Cl)cc1 [DICHLORBENZURON] |  |  |  |  |  |  |  |  |  | 1.82 (≈ 5.3 µM) |  |  |  |  |
| O=C(NC(=O)c1c(F)cccc1F)Nc1ccc(CO/N=C(/c2ccc(Cl)cc2)C2CC2)cc1 [FLUCYCLOXURON] |  | 0 | 10 | 100 | 100 |  | 15 |  | 50 | 2.44 (≈ 5.04 µM) |  | 95 |  | mortality at 0.5 µg/mL (Mythimna separata [12]): 0%; mortality at 5 µg/mL (Mythimna separata [22]): 90% |
| O=C(NC(=O)c1c(F)cccc1F)Nc1cc(Cl)c(OC(F)(F)C(F)F)c(Cl)c1 [HEXAFLUMURON] |  |  |  |  |  |  |  |  |  | 4.7 (≈ 10.2 µM) |  |  |  |  |
| O=C(NC(=O)c1c(F)cccc1F)Nc1cc(Cl)c(F)c(Cl)c1F [TEFLUBENZURON] |  |  |  |  |  |  |  |  |  | 1.14 (≈ 2.99 µM) |  |  |  |  |
